Assay results published in ChEMBL document CHEMBL1201862, “PubChem BioAssay data set” (2004).
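Assay format: 96-well plates, 48-hour exposure. Here, GI50 denotes the concentration required for 50% inhibition of growth.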 Active and inactive are the calls of the source. Cut-off read from the data, not from the text of the source: active = GI50 up to about 1.1 µM and inactive = higher.

Experiments:
Test in all cases: inhibition of tumour cell growth, NCI panel, 48 h
UACC-257 = test system: UACC-257
SR = test system: SR
BT-549 = test system: BT-549
SN12C = test system: SN12C
SF-295 = test system: SF-295
IGROV-1 = test system: IGROV-1
MDA-MB-231 = test system: MDA-MB-231
Malme-3M = test system: Malme-3M
RPMI-8226 = test system: RPMI-8226
A498 = test system: A498
K562 = test system: K562
HCT-15 = test system: HCT-15
UACC-62 = test system: UACC-62
SK-OV-3 = test system: SK-OV-3
HT-29 = test system: HT-29
HOP-62 = test system: HOP-62
OVCAR-8 = test system: OVCAR-8
SK-MEL-5 = test system: SK-MEL-5
U-251 = test system: U-251
NCI/ADR-RES = test system: NCI/ADR-RES

SMILES | GI50 (UACC-257) | GI50 (SR) | GI50 (BT-549) | GI50 (SN12C) | GI50 (SF-295) | GI50 (IGROV-1) | GI50 (MDA-MB-231) | GI50 (Malme-3M) | GI50 (RPMI-8226) | GI50 (A498) | GI50 (K562) | GI50 (HCT-15) | GI50 (UACC-62) | GI50 (SK-OV-3) | GI50 (HT-29) | GI50 (HOP-62) | GI50 (OVCAR-8) | GI50 (SK-MEL-5) | GI50 (U-251) | GI50 (NCI/ADR-RES)
Cc1ncc(CO)c(/C=N/CCCCCC/N=C/c2c(CO)cnc(C)c2[O-])c1[O-].[Mg+2] | > 100 µM (inactive) | 92.7 µM (inactive) | > 100 µM (inactive) | > 100 µM (inactive) | > 100 µM (inactive) | > 100 µM (inactive) | > 100 µM (inactive) | > 100 µM (inactive) | > 100 µM (inactive) | > 100 µM (inactive) | > 100 µM (inactive) | > 100 µM | > 100 µM (inactive) | > 100 µM (inactive) | > 100 µM (inactive) | > 100 µM (inactive) | > 67.9 µM (inactive) | > 100 µM (inactive) | > 100 µM (inactive) | > 100 µM (inactive)
Nc1ccn(C2CCC(CO)O2)c(=O)n1 (stereo not drawn) | > 100 µM (inactive) | 367 µM (inactive) | > 1000 µM (inactive) | > 100 µM (inactive) | > 100 µM (inactive) | > 100 µM (inactive) | > 1000 µM (inactive) | > 100 µM (inactive) | > 100 µM (inactive) | > 91.8 µM (inactive) | > 100 µM (inactive) | > 100 µM | > 100 µM (inactive) | > 100 µM (inactive) | > 100 µM (inactive) | > 100 µM (inactive) | 156 µM (inactive) | > 100 µM (inactive) | > 100 µM (inactive) | 159 µM (inactive)
C[C@]12CC[C@H](O)C[C@@H]1CC[C@@H]1[C@@H]2CC[C@]2(C)[C@@H](c3cc(C(F)(F)F)[nH]n3)CC[C@@H]12 | 5.69 µM (inactive) | 3.87 µM (inactive) | 8.39 µM (inactive) | 7.59 µM (inactive) | 4.23 µM (inactive) | 6.32 µM (inactive) | 6.67 µM (inactive) | > 37.3 µM (inactive) | 3.96 µM (inactive) | 8.59 µM (inactive) | 3.25 µM (inactive) | 6.32 µM | 14.1 µM (inactive) | 13.8 µM (inactive) | 4.27 µM (inactive) | 7.38 µM (inactive) | 5.35 µM (inactive) | 6.82 µM (inactive) | 7.01 µM (inactive) | 6.32 µM (inactive)
CN(C)CC1CCC/C(=C\c2ccc(OC(=O)/C=C/c3ccc(Cl)cc3)cc2)C1=O (stereo not drawn) | 11.5 µM (inactive) | 1.09 µM (active) | 0.217 µM (active) | 3.92 µM (inactive) | 7.6 µM (inactive) | 1.43 µM (inactive) | 5.21 µM (inactive) | 9.06 µM (inactive) | 0.294 µM (active) | 8.53 µM (inactive) | 1.23 µM (inactive) | 2.01 µM | 8.81 µM (inactive) | 21.3 µM (inactive) | 2.07 µM (inactive) | 6.25 µM (inactive) | 5.62 µM (inactive) | 2.16 µM (inactive) | 3.13 µM (inactive) | 7.43 µM (inactive)
CC(=O)OC1C2CCC1C1C2N=NN1c1ccc([N+](=O)[O-])cc1 (stereo not drawn) | > 100 µM (inactive) | 15.7 µM (inactive) | > 100 µM (inactive) | > 100 µM (inactive) | > 100 µM (inactive) | > 100 µM (inactive) | > 100 µM (inactive) | > 100 µM (inactive) | > 100 µM (inactive) | > 100 µM (inactive) | – | > 100 µM | > 100 µM (inactive) | > 100 µM (inactive) | > 100 µM (inactive) | > 100 µM (inactive) | > 100 µM (inactive) | > 100 µM (inactive) | > 100 µM (inactive) | > 100 µM (inactive)
CC1=NN(C(=O)CC(=O)Nc2ccc(C)cc2)C(=O)C1/N=N/c1ccc(C(=O)O)cc1 (stereo not drawn) | > 100 µM (inactive) | 78.5 µM (inactive) | > 100 µM (inactive) | > 100 µM (inactive) | > 100 µM (inactive) | > 100 µM (inactive) | > 100 µM (inactive) | > 100 µM (inactive) | > 100 µM (inactive) | > 100 µM (inactive) | > 100 µM (inactive) | > 100 µM | > 100 µM (inactive) | – | > 100 µM (inactive) | > 100 µM (inactive) | > 100 µM (inactive) | > 100 µM (inactive) | > 100 µM (inactive) | > 100 µM (inactive)
N#Cc1c(-c2ccc([N+](=O)[O-])cc2)c2c([nH]c1=O)-c1ccccc1CCC2 | 80 µM (inactive) | 29.6 µM (inactive) | 24.9 µM (inactive) | > 100 µM (inactive) | 37.2 µM (inactive) | 46.8 µM (inactive) | > 100 µM (inactive) | 56.6 µM (inactive) | 30.8 µM (inactive) | 46.3 µM (inactive) | 36.7 µM (inactive) | 31.3 µM | 28.1 µM (inactive) | > 100 µM (inactive) | 55.3 µM (inactive) | 40.5 µM (inactive) | 55.3 µM (inactive) | 51.9 µM (inactive) | 52.5 µM (inactive) | 50.5 µM (inactive)
